The term AC50 denotes the concentration giving half of the maximal activity seen.

Bounds are passed on as bounds.

Here are results for 26 compounds from US20260138961A1, “MODULATORS OF MITOCHONDRIAL DNA REPLICATION” (Pretzel Therapeutics, Inc., priority 2022, published 2026).

For the first assay, the target named is T1, POLγA:A467T (Homo sapiens, UniProt P54098, A467T).
T1 sequence (P54098 1-1239 A467T): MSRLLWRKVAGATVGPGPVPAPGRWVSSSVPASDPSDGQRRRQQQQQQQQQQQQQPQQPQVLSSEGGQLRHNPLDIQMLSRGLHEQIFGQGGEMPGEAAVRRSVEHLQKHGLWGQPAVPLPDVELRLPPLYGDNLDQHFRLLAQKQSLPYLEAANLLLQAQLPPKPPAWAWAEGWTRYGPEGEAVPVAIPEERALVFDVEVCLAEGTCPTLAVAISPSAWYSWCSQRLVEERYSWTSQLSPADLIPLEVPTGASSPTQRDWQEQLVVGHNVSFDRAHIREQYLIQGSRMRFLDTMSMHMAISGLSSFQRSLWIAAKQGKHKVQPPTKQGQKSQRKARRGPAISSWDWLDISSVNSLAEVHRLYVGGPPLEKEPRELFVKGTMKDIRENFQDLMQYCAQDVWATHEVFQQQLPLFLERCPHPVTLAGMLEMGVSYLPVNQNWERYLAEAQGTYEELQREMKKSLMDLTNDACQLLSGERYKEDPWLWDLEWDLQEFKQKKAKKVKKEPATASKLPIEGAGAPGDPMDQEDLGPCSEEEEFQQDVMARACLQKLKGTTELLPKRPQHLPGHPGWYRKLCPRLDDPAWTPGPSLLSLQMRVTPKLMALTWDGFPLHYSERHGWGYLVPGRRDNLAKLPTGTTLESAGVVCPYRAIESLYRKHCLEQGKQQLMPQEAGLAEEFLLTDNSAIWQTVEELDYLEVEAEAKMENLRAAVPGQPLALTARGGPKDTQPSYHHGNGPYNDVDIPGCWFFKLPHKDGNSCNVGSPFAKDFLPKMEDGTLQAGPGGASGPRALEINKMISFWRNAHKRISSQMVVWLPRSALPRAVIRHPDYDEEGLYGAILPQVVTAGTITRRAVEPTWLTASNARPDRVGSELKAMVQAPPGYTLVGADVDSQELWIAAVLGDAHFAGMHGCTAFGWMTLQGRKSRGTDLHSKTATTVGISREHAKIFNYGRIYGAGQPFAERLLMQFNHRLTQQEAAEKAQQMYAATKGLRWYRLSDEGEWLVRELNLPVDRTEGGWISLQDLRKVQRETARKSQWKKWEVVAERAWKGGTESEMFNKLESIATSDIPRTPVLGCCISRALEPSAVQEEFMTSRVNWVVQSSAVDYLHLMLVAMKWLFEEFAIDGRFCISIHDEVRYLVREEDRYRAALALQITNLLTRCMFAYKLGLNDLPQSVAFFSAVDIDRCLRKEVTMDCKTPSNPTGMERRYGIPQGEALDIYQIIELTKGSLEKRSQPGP
T1 sequence (Q9UHN1 1-485 partner): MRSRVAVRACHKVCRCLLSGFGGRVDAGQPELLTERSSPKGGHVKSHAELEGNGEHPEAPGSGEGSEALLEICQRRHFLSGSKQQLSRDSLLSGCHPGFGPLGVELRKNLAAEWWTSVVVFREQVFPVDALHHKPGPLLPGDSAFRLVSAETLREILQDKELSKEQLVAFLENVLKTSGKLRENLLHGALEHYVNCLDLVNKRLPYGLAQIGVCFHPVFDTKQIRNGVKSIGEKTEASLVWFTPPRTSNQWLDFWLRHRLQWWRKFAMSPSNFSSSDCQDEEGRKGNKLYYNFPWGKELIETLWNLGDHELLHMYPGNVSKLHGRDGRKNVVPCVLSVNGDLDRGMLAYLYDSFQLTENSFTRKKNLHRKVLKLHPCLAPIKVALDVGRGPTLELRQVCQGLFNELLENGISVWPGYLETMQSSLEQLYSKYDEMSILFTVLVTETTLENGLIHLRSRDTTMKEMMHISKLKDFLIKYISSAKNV
The experiment in a line: DNA polymerization assay, POLγA:A467T mutant. In kind it is biochemical. The settings on record: A467T AC50, stimulation of polymerase activity, primed M13mp18 ssDNA, 37° C. 2 hours. The method, then:
DNA Polymerization Assay to Monitor Effects on Human Wildtype POLγ and Four Disease-Causing Mutant Variants of Human POLγ.
The ability of small molecules to stimulate the polymerase activity of POLγ was analyzed in a quantitative fluorescence SYBR Green I assay with fluorescence intensity (FI) readout.
In the presence of dNTPs, wild type human POLγ and mutant derivatives thereof were incubated with single-stranded, circular M13mp18 ssDNA hybridized to a short DNA oligonucleotide that functions as a primer for initiation of DNA synthesis. POLγ and mutant derivatives thereof will extend the primer and use the M13mp18 molecule as a template to synthesize long stretches of double-stranded DNA. SYBR Green I, which is a double-stranded DNA-binding dye, was used to quantify formation of double-stranded DNA in the reaction. When bound to double-stranded DNA, SYBR Green I fluorescence increases by up to 100-fold.
The assay was performed in the 384-well plate format. Upon addition of compounds, changes in double-stranded DNA synthesis activity can be monitored by following effects on fluorescent intensity.
The reactions also contained the accessory POLγB subunit, and the human mitochondrial single-stranded DNA binding protein (mtSSB).
The DNA template mixture used in the assay contained 0.5 nM primed M13 mp18 ssDNA, 400 nM mtSSB, 0.1 mM Tris-HCl (pH 8.0), 0.1 mM dNTP, 10 mM MgCl2, 0.1 mg/mL BSA, 1 mM TCEP solution, and 0.02% Triton X-100. The DNA template mixture for the wild type protein contained either 100 μM dNTP, 1 μM dNTP, or 0.1 μM dNTP, designated in Table 2 as 100 μM, 1 μM, and 0.1 μM, respectfully.
Microplates with compounds (0.1 μL in each well) to be tested in the assay were prepared from 10 mM compound stocks in 100% DMSO, and equal amounts of DMSO without any compound were added to positive and negative control wells.
The protein mixture was dispensed (5 μL into each well) into compound plates and incubated at 37° C. for 15 minutes. After incubation, 5 μL of the DNA template mixture was dispensed into each well. The plates were then incubated at 37° C. for 2 hours.
During incubation, a combined stop buffer and detection reagent solution was prepared. The buffer contained 25 mM EDTA (pH 8.0), 0.02% Triton X-100, and SYBR Green I [Invitrogen] diluted 10,000× (for fluorescent readout). EDTA will stop the enzymatic reaction by chelating magnesium ions.
In the case of `Cc1cc(S(=O)(=O)Nc2noc(-c3ccccc3)n2)c(C)cc1Cl` [Example 142, 4-chloro-2,5-dimethyl-N-(5-phenyl-1,2,4-oxadiazol-3-yl)benzenesulfonamide], the AC50 was more than 100 µM.

The assay is the same for the next values; noted with them: stimulation of polymerase activity, primed M13mp18 ssDNA, 37° C. 2 hours; read-out: A467T AC50.
For the compound `Cc1cc(S(=O)(=O)Nc2cccc(C(=O)N3CCCC3)c2)c(C)cc1Cl` [Example 119, 4-chloro-2,5-dimethyl-N-(3-(pyrrolidine-1-carbonyl)phenyl) benzenesulfonamide], the AC50 is more than 100 µM. The same measure, in the same setting: then `O=S(=O)(Nc1csc(-c2ccccc2)n1)c1ccc(Cl)cc1` [Example 120, 4-chloro-N-(2-phenylthiazol-4-yl)benzenesulfonamide], with more than 100 µM; and `O=S(=O)(Nc1csc(-c2ccccc2)n1)c1cccnc1` [Example 121, N-(2-phenylthiazol-4-yl)pyridine-3-sulfonamide], with more than 100 µM; and `O=S(=O)(Nc1csc(-c2ccccc2)n1)c1ccc(F)c(F)c1` [Example 122, 3,4-difluoro-N-(2-phenylthiazol-4-yl)benzenesulfonamide], with more than 100 µM.

For `Cc1ccc(S(=O)(=O)Nc2csc(-c3ccccc3)n2)c(C)c1` [Example 123, 2,4-dimethyl-N-(2-phenylthiazol-4-yl)benzenesulfonamide], the AC50 is more than 100 µM.

Consider `Cc1cc(F)ccc1S(=O)(=O)Nc1csc(-c2ccccc2)n1` [Example 124, 4-fluoro-2-methyl-N-(2-phenylthiazol-4-yl)benzenesulfonamide], for which the AC50 is more than 100 µM. Regarding `O=S(=O)(Nc1csc(-c2ccccc2)n1)c1ccccc1Cl` [Example 125, 2-chloro-N-(2-phenylthiazol-4-yl)benzenesulfonamide], the AC50 is 8 µM. In the case of `O=S(=O)(Nc1csc(-c2ccccc2)n1)c1ccc(F)cc1Cl` [Example 126, 2-chloro-4-fluoro-N-(2-phenylthiazol-4-yl)benzenesulfonamide], the AC50 turned out to be 32 µM.

As to `O=S(=O)(Nc1csc(-c2ccccc2)n1)c1ccc(C(F)(F)F)cc1` [Example 127, N-(2-phenylthiazol-4-yl)-4-(trifluoromethyl)benzenesulfonamide], the AC50 was more than 100 µM. `O=S(=O)(Nc1csc(-c2ccccc2)n1)c1cccc2nccnc12` [Example 128, N-(2-phenylthiazol-4-yl)quinoxaline-5-sulfonamide]: the AC50 is more than 100 µM.

For the compound `Cc1cc(S(=O)(=O)N[C@H]2CCCN(C(=O)c3ccccc3)C2)c(C)cc1Cl` [Example 129, (S)-N-(1-benzoylpiperidin-3-yl)-4-chloro-2,5-dimethylbenzenesulfonamide], the AC50 was more than 100 µM. Still for that read-out and setting: for `Cc1cc(S(=O)(=O)N[C@H]2CCCN(C(=O)N3CCCC3)C2)c(C)cc1Cl` [Example 130, (S)-4-chloro-2,5-dimethyl-N-(1-(pyrrolidinee-1-carbonyl)piperidin-3-yl)benzenesulfonamide] the value was more than 100 µM; for `Cc1cc(S(=O)(=O)Nc2nsc(-c3ccccc3)n2)c(C)cc1Cl` [Example 131, 4-chloro-2,5-dimethyl-N-(5-phenyl-1,2,4-thiadiazol-3-yl)benzenesulfonamide], more than 100 µM. For the compound `Cc1cc(S(=O)(=O)Nc2nc(-c3ccccc3)ns2)c(C)cc1Cl` [Example 132, 4-chloro-2,5-dimethyl-N-(3-phenyl-1,2,4-thiadiazol-5-yl)benzenesulfonamide], the AC50 was more than 100 µM. As to `Cc1cc(S(=O)(=O)Nc2cccc(C(=O)N3CCC[C@@H]3C)c2)c(C)cc1Cl` [Example 133, (S)-4-chloro-2,5-dimethyl-N-(3-(2-methylpyrrolidine-1-carbonyl)phenyl)benzenesulfonamide], the AC50 was more than 100 µM. As to `Cc1ccc(C)c(S(=O)(=O)Nc2csc(-c3ccccc3)n2)c1` [Example 134, 2,5-dimethyl-N-(2-phenylthiazol-4-yl)benzenesulfonamide], the AC50 came to 3 µM. Regarding `Cc1cc(Cl)ccc1S(=O)(=O)Nc1csc(-c2ccccc2)n1` [Example 135, 4-chloro-2-methyl-N-(2-phenylthiazol-4-yl)benzenesulfonamide], the half-maximal activity concentration (AC50) is 32 µM. Take `Cc1cc(S(=O)(=O)Nc2csc(-c3ccccc3)n2)c(Cl)cc1F` [Example 136, 2-chloro-4-fluoro-5-methyl-N-(2-phenylthiazol-4-yl)benzenesulfonamide]: the half-maximal activity concentration (AC50) amounted to 5 µM.

Consider `O=S(=O)(Nc1csc(-c2ccccc2)n1)c1ccc2ncsc2c1` [Example 137, N-(2-phenylthiazol-4-yl)benzo[d]thiazole-6-sulfonamide], for which the AC50 was more than 100 µM. On the same count and under the same terms, then `O=S(=O)(Nc1csc(-c2ccccc2)n1)c1ccc(Cl)cc1Cl` [Example 138, 2,4-dichloro-N-(2-phenylthiazol-4-yl)benzenesulfonamide], with more than 100 µM; and `O=S(=O)(Nc1csc(-c2ccccc2)n1)c1ccccn1` [Example 139, N-(2-phenylthiazol-4-yl)pyridine-2-sulfonamide], with more than 100 µM. As to `O=S(=O)(Nc1csc(-c2ccccc2)n1)c1ccc(F)cc1F` [Example 140, 2,4-difluoro-N-(2-phenylthiazol-4-yl)benzenesulfonamide], the half-maximal activity concentration (AC50) is more than 100 µM. In the case of `O=S(=O)(Nc1csc(-c2ccccc2)n1)c1ccc(C(F)(F)F)cc1F` [Example 141, 2-fluoro-N-(2-phenylthiazol-4-yl)-4-(trifluoromethyl)benzenesulfonamide], the AC50 was more than 100 µM. As for `Cc1cc(S(=O)(=O)Nc2nc(-c3ccccc3)no2)c(C)cc1Cl` [Example 143, 4-chloro-2,5-dimethyl-N-(3-phenyl-1,2,4-oxadiazol-5-yl)benzenesulfonamide], the AC50 was more than 100 µM. Turning to `Cc1cc(S(=O)(=O)Nc2cccc(C(=O)N3CCC[C@H]3CO)c2)c(C)cc1Cl` [Example 145, (S)-4-chloro-N-(3-(2-(hydroxymethyl)pyrrolidine-1-carbonyl)phenyl)-2,5-dimethylbenzenesulfonamide], the AC50 was more than 100 µM.
